# According to ChEMBL document CHEMBL5344416, “Phenothiazines as anti-cancer agents: SAR overview and synthetic strategies” (Eur J Med Chem, 2023):
# pIC50: −log10 of the molar value.
# Legend:
# [1] = test system: SNB-19; assay: Anticancer activity against human SNB-19 cells assessed as reduction in cell growth by SRB assay; format: functional, cell-based
# [2] = test system: MCF7; assay: Anticancer activity against human MCF7 cells assessed as cell growth inhibition incubated for 48 hrs by MTT assay; format: functional, cell-based; conditions: MCF7, 48 h
# [3] = test system: MCF7; assay: Cytotoxicity against human MCF7 cells assessed as reduction in cell growth; format: functional, cell-based
# [4] = test system: TC-32; assay: Cytotoxicity against human TC-32 cells assessed as reduction in cell viability; format: functional, cell-based
# [5] = Cytotoxicity against human HFF-1 cells assessed as reduction of cell viability incubated for 72 hrs by CCK-8 assay; format: toxicity, cell-based
# [6] = test system: SNB-19; assay: Antiproliferative activity against human SNB-19 cells assessed as cell growth inhibition incubated for 72 hrs by WST-1 assay; format: functional, cell-based; conditions: SNB-19, 72 h
# [7] = test system: TC-32; assay: Cytotoxicity against human TC-32 cells assessed as reduction in cell viability incubated for 48 hrs by CellTiter-Blue reagent based […] assay; format: functional; conditions: TC-32, 48 h
# [8] = test system: T47D; assay: Antiproliferative activity against human T47D cells assessed as cell growth inhibition after 48 hrs by SRB assay; format: functional, cell-based
# [9] = test system: MGC-803; assay: Antiproliferative activity against human MGC-803 cells assessed as reduction in cell growth by MTT assay; format: functional, cell-based
# [10] = test system: MKN-28; assay: Antiproliferative activity against human MKN-28 cells assessed as reduction in cell viability by MTT assay; format: functional, cell-based
# [11] = test system: MKN-45; assay: Antiproliferative activity against human MKN-45 cells assessed as cell growth inhibition by MTT assay; format: functional, cell-based
# [12] = test system: MCF7; assay: Antiproliferative activity against human MCF7 cells assessed as cell growth inhibition by MTT assay; format: functional, cell-based
# [13] = test system: ASPC1; assay: Anticancer activity against human ASPC1 cells assessed as reduction in cell growth incubated for 72 hrs by MTT assay; format: functional, cell-based; conditions: ASPC1, 72 h
# [14] = Antioxidant activity assessed as DPPH radical scavenging activity incubated for 30 mins; format: functional
# [15] = test system: SW1990; assay: Anticancer activity against human SW1990 cells assessed as reduction in cell viability incubated for 72 hrs by MTT assay; format: functional, cell-based; conditions: SW1990, 72 h
# [16] = test system: TC-32; assay: Anticancer activity against human TC-32 cells assessed as reduction in cell growth incubated for 48 hrs by SRB assay; format: functional, cell-based; conditions: TC-32, 48 h
# [17] = test system: SNB-19; assay: Anticancer activity against human SNB-19 cells assessed as reduction in cell growth incubated for 48 hrs by SRB assay; format: functional, cell-based; conditions: SNB-19, 48 h
# [18] = test system: MDA-MB-231; assay: Anticancer activity against human MDA-MB-231 cells assessed as reduction in cell viability measured after 72 hrs by MTT assay; format: functional, cell-based; conditions: MDA-MB-231, 72 h
# [19] = test system: TC-32; assay: Antiproliferative activity against human TC-32 cells assessed as reduction in cell proliferation incubated for 72 hrs by WST-1 assay; format: functional, cell-based; conditions: TC-32, 72 h
# [20] = test system: SNB-19; assay: Antiproliferative activity against human SNB-19 cells assessed as reduction in cell proliferation incubated for 72 hrs by WST-1 assay; format: functional, cell-based; conditions: SNB-19, 72 h
# [21] = test system: MDA-MB-231; assay: Antiproliferative activity against human MDA-MB-231 cells assessed as reduction in cell proliferation incubated for 72 hrs by WST-1 assay; format: functional, cell-based; conditions: MDA-MB-231, 72 h
# [22] = test system: U-87 MG; assay: Antiproliferative activity against human U87 cells assessed as reduction in cell viability incubated for 48 hrs by MTT assay; format: functional, cell-based, U-87MG ATCC
# [23] = test system: U-251; assay: Antiproliferative activity against human U-251 cells assessed as reduction in cell viability incubated for 48 hrs by MTT assay; format: functional, cell-based; conditions: U-251, 48 h
# [24] = test system: CT26; assay: Antitumor activity against mouse CT26 cells assessed as tumor growth inhibition incubated for 4 hrs by MTT assay relative to control; format: functional; design: scale not given: the % may be the effect or the level left
# [25] = test system: CT26; assay: Antitumor activity against mouse CT26 cells assessed as reduction in cell viability incubated for 4 hrs by MTT assay; format: functional, cell-based; conditions: CT26, 4 h
# [26] = test system: MCF7; assay: Antitumor activity against human MCF7 cells assessed as increase in LDH level at 1000 ug relative to control; format: functional; conditions: dose 1000 µg
# [27] = test system: MCF7; assay: Antitumor activity against human MCF7 cells assessed as inhibition of cell growth at 1000 ug measured after 48 hrs by spectrophotometric analysis relative to control; format: functional; design: scale not given: the % may be the effect or the level left; conditions: dose 1000 µg
# [28] = test system: HepG2; assay: Anticancer activity against human HepG2 cells assessed as inhibition of cell proliferation measured after 48 hrs by MTT assay; format: functional, cell-based; conditions: HepG2, 48 h
# [29] = test system: A549; assay: Anticancer activity against human A549 cells assessed as inhibition of cell proliferation measured after 48 hrs by MTT assay; format: functional, cell-based; conditions: A549, 48 h
# [30] = test system: MCF7; assay: Anticancer activity against human MCF7 cells assessed as inhibition of cell growth incubated for 48 hrs by MTT assay; format: functional, cell-based; conditions: MCF7, 48 h
# [31] = test system: MCF7; assay: Cytotoxicity against human MCF7 cells assessed as reduction in cell viability by MTT assay; format: functional, cell-based
# [32] = Antioxidant activity assessed as ABTS radical scavenging activity; format: functional
# [33] = Antioxidant activity assessed as DPPH radical scavenging activity; format: functional
# [34] = test system: MCF7; assay: Cytotoxicity against human MCF7 cells assessed as reduction in cell growth incubated for 96 hrs by MTT assay; format: functional, cell-based; conditions: MCF7, 96 h
# [35] = test system: SK-BR-3; assay: Cytotoxicity against human SK-BR-3 cells assessed as cell growth inhibition incubated for 48 hrs by WST-1 assay; format: functional, cell-based; conditions: SK-BR-3, 48 h
# [36] = test system: MDA-MB-231; assay: Cytotoxicity against human MDA-MB-231 cells assessed as reduction in cell viability incubated for 24 hrs by MTT assay; format: functional, cell-based; conditions: MDA-MB-231, 24 h
# [37] = test system: T47D; assay: Cytotoxicity against human T47D cells assessed as reduction in cell viability after 48 hrs by MTT assay; format: functional, cell-based
# [38] = test system: MDA-MB-468; assay: Cytotoxicity against human MDA-MB-468 cells assessed as cell viability measured after 3 days by Cell Titer Blue assay; format: functional, cell-based; conditions: MDA-MB-468, 72 h
# [39] = Cytotoxicity in human MCF-10A cells assessed as reduction in cell viability incubated for 72 hrs by MTT assay; format: toxicity, cell-based
smiles,measurement,setting,value
c1cnc2c(c1)Nc1ccncc1S2,pIC50,[1],6.24
same,pIC50,[2],5.08
same,pIC50,[3],6.34
same,pIC50,[4],6.14
same,IC50 at 72 h,[5],38.6 µM
CN1CCN(CC#CCN2c3ccncc3Sc3ccncc32)CC1,pIC50,[6],4.67
same,pIC50,[7],4.46
same,pIC50,[8],5.02
COc1ccc(-n2cc(CN3c4ccccc4Sc4ccccc43)nn2)c([N+](=O)[O-])c1,pIC50,[9],5.92
same,pIC50,[10],5.57
same,pIC50,[11],5.46
CN(C)CCN1CCN(CCCN2c3ccccc3Sc3ccc(C(F)(F)F)cc32)CC1,pIC50,[12],6.38
CCCCCN1c2ccccc2Sc2cc(/C=C(\C#N)C(N)=O)ccc21,pIC50,[13],4.60
same,pIC50,[14],4.43
same,pIC50,[15],4.88
CCN(C)CC#CCN1c2ccncc2Sc2ncccc21,pIC50,[16],5.82
same,pIC50,[17],6.96
same,pIC50,[18],5.55
C#CCN1c2ncccc2Sc2cccnc21,pIC50,[19],5.47
same,pIC50,[20],5.41
same,pIC50,[21],4.85
CSc1ccc2c(c1)N(CCCn1ccc(=O)[nH]c1=O)c1ccccc1S2,pIC50,[2],5.87
O=[N+]([O-])c1ccccc1S(=O)(=O)N1c2ccccc2Sc2ccc(Cl)cc21,pIC50,[22],5.29
same,pIC50,[23],5.03
CCN(CC)CC#CCN1c2ccncc2Sc2ncccc21,pIC50,[16],6.27
same,pIC50,[17],6.96
same,pIC50,[18],5.20
COCCOCCOCCOCCOCCOCCOCCOCCOCCOCCOCCOC(=O)CN1c2ccccc2Sc2ccccc21,Activity,[24],92%
same,pIC50,[25],3.54
CN1c2ccccc2Sc2cc(/C=N/NC(=O)Cn3c4ccccc4c4ccccc43)ccc21,Activity,[26],48%
same,Activity,[27],48%
COc1ccc(N/N=C2/SC(N/N=C(\C)c3ccc4c(c3)Nc3ccccc3S4)=NC2=O)cc1,pIC50,[28],5.27
same,pIC50,[29],5.27
COCCSc1nnc(CN2c3ccccc3Sc3ccc(Cl)cc32)s1,pIC50,[30],5.46
C/C(=N\c1ccc(/N=N/c2ccccc2)cc1)c1ccc2c(c1)Nc1ccccc1S2,pIC50,[31],4.46
same,pIC50,[32],4.39
same,pIC50,[33],4.43
CCN1c2ccc(-c3ccccc3)cc2Sc2cc(-c3nnc4ccccn34)ccc21,pIC50,[34],5.21
same,pIC50,[35],4.50
same,pIC50,[36],4.71
same,pIC50,[37],4.93
same,pIC50,[38],5.01
same,IC50 at 72 h,[39],13.4 µM
